# Data as given in ChEMBL document CHEMBL1143808, “A generally applicable method for assessing the electrophilicity and reactivity of diverse nitrile-containing compounds” (Bioorg Med Chem Lett, 2007).
# Columns and labels:
# Type in all cases: ADME, Microsome
# Liver microsomes [1] = assay: Irreversible covalent binding in human liver microsomes at 100 uM after 30 mins; conditions: 0.5 h
# Liver microsomes [2] = assay: Irreversible covalent binding in human liver microsomes at 10 uM after 1 hr
# Liver microsomes [3] = assay: Irreversible covalent binding in rat liver microsomes after 1 hr
Compound,Activity (Liver microsomes [1]) [%],Activity (Liver microsomes [2]) [pmol/mg],Activity (Liver microsomes [3]) [pmol/mg]
[3H]C([3H])([3H])S(=O)(=O)c1ccc(-c2ccc([C@H](N[C@@H](CC(C)C)C(=O)NCC#N)C(F)(F)F)cc2)cc1,0.06,7,
COCCN1CCC(Cc2ccc(C(=O)NCc3cnc(C#N)nc3NCC(C)(C)C)cc2)CC1,0.5,70,
N#CN1CCC(NS(=O)(=O)c2ccccc2)C1 (configuration not stated),3.6,460,550
